Experimental data reported in US20060234278A1, “Sequences used to identify if a female mammal comprises a mutation in the alpha-fetoprotein sequence(S) or a partial or total deletion of the alpha-fetoprotein sequence(S)” (priority 1999, published 2006).

How the values were obtained:
Type in all cases: in vivo, mouse
[1] = system: estrogen synthesis; assay: Serum estradiol levels of ATD-treated gestating females by RIA assay; conditions: heterozygous gestating females, daily s.c. 4 mg ATD from day 13.5 of gestation; 10 pg/ml is the RIA detection limit
Procedure: (§1) Females heterozygous for the Afp tm2Ibmm allele (CD1 strain, 8th backcross level) were mated with Afp tm2Ibmm homozygous males and housed under the conditions described above. They then received a daily subcutaneous injection in the neck of 4 mg of the aromatase inhibitor ATD (1, 4, 6-androstatrien-3,17-dione, Steraloids, Newport, R.I.) dissolved in propylene glycol, from the 13.5th day of gestation (day 0.5 is defined as the day of vaginal plug detection) until the end of gestation. Controls were injected with propylene glycol only. Pups were born naturally or retrieved by Caesarian operation on embryonic day 20.5. Blood from the mothers was taken from the hart and estradiol levels were measured by classical RIA assay. Fertility of female pups was tested at the age of 2-3 months. In parallel, sisters of the female pups tested were dissected at the age of 3 months and total RNA was extracted from the pituitary and the hypothalamus as described above. cDNA was obtained using the TaqMan Reverse Transcription Reagents kit (Applied Biosystems) and real time PCR was performed on the 7300 Real Time PCR System (Applied Biosystems) with the Platinum Quantitative PCR SuperMix-UDG kit (Invitrogen) and the TaqMan Gene Expression Assays (Applied Biosystems) for pituitary genes except for Egr1. […]

[2] = system: AFP KO females; assay: Fertility of AFP KO female pups after prenatal ATD treatment
Procedure: as §1

[3] = system: Ucp1, Isp2, Egr1, Gnrhr expression in the pituitary; assay: Real time PCR gene expression in pituitary of prenatally ATD-treated AFP KO females; conditions: prenatal ATD-treated AFP KO females (n=7)
Procedure: as §1

[4] = system: Gnrh2 gene expression in the hypothalamus; assay: Real time PCR Gnrh2 gene expression in hypothalamus of prenatally ATD-treated AFP KO females; conditions: prenatal ATD-treated AFP KO mice (n=7), normalized to Hprt
Procedure: as §1

C[C@]12C=CC(=O)C=C1C=C[C@@H]1[C@@H]2CC[C@]2(C)C(=O)CC[C@@H]12 [ATD, 1,4,6-androstatrien-3,17-dione]
Serum estradiol levels [1]: < 10 pg/mL | Fertility of female pups ([2]; AFP KO and heterozygous pups from ATD-injected mothers, tested at 2-3 months, 8 KO and 17 heterozygous pups tested): fertile | Litter size ([2]; litters born to prenatally ATD-treated AFP KO and heterozygous females): normal size | Pituitary gene expression levels vs untreated KO females ([3]; normalized to Hprt, p=0.044): statistically different from those of the untreated KO females | Pituitary gene expression levels vs heterozygous untreated females ([3]; p=0.508, except Isp2 (p=0.014)): not statistically different from those of the heterozygous, untreated females | Gnrh2 expression level in hypothalamus [4]: not increased
